Tested on: Ophelimus maskelli
Test: Free choice experiment: Eucalyptus camaldulensis saplings with monoterpene disks exposed to Ophelimus maskelli gall wasps
Type: in vivo
Details: for Eucalyptus camaldulensis resistance to Ophelimus maskelli infection / Ophelimus maskelli oviposition / number of infected leaves compared to control / number of galls per leaf compared to control: free choice, in words; for Ophelimus maskelli oviposition: compared to controls; for number of infected leaves compared to control: eucalyptol vs mineral oil, geraniol and citronellal vs mineral oil and eucalyptol controls; for number of galls per leaf compared to control: vs mineral oil and eucalyptol controls
Description: Preparation of monoterpene disks—100 μl of pure monoterpene solutions of geraniol, citronellal, eucalyptol (also known as 1,8-cineole, 1,8-epoxy-p-menthane) or mineral oil (Sigma-Aldrich Cat. Nos. G9698, 27470, C80601 or M5904, respectively) were each mixed with 5 ml of Vaseline. The mixed solutions were then spread using a spatula onto 20 mm in diameter filter paper disks (Whatman 3 mm cellulose chromatography papers, Sigma-Aldrich Cat. No. Z742422).
Free choice experiments—The free-choice experiments, were gall wasps were free to choose which plant to infest in a given cage, were carried out with Ophelimus maskelli gall wasp in three net cages of 80 cm×100 cm×150 cm in a greenhouse (28 ±2° C.) as described in Bleeker et al. [Plant Physiol. (2009) 151(2): 925-935], with the following modifications. Four Eucalyptus camaldulensis 3 months old saplings were placed randomly in each cage and 10 disks with either geraniol, citronellal, eucalyptol (1,8-Cineole, used as control) or mineral oil (used as control) were attached by metal wires to the branches of each sapling (10 branches for each sapling) (see FIG. 2) so that each sapling had 10 disks attached with one of the treatments. Next, 500 Ophelimus maskelli female adult wasps were released in the middle of each net cage. One week later the disks were removed from the branches of the saplings, the saplings were taken out of the cage and thereafter the Eucalyptus saplings were transferred to an insect free net house, an outdoor perimeter surrounded by a 50 mesh insect proof net. The plants were maintained in the net house for 6 weeks after inoculation. At the end of the six week period, infection levels were evaluated by counting the number of galls developed on the treated saplings.

[1] = average of 3 cages, leaves with 1-10 galls per leaf
[2] = average of 3 cages, leaves with 10-50 galls per leaf
[3] = average of 3 cages, leaves with 50-100 galls per leaf
[4] = cage 1, leaves with 1-10 galls per leaf, 6 weeks after inoculation
[5] = cage 1, leaves with 10-50 galls per leaf, 6 weeks after inoculation
[6] = cage 1, leaves with 50-100 galls per leaf, 6 weeks after inoculation
[7] = cage 1, total, 6 weeks after inoculation
[8] = cage 2, leaves with 1-10 galls per leaf, 6 weeks after inoculation
[9] = cage 2, leaves with 10-50 galls per leaf, 6 weeks after inoculation
[10] = cage 2, leaves with 50-100 galls per leaf, 6 weeks after inoculation
[11] = cage 2, total, 6 weeks after inoculation
[12] = cage 3, leaves with 1-10 galls per leaf, 6 weeks after inoculation
[13] = cage 3, leaves with 10-50 galls per leaf, 6 weeks after inoculation
[14] = cage 3, leaves with 50-100 galls per leaf, 6 weeks after inoculation
[15] = cage 3, total, 6 weeks after inoculation

Row | SMILES | Number of infected leaves [1] | Number of infected leaves [2] | Number of infected leaves [3] | Number of infected leaves (average of 3 cages, total) | Number of infected leaves [4] | Number of infected leaves [5] | Number of infected leaves [6] | Number of infected leaves [7] | Number of infected leaves [8] | Number of infected leaves [9] | Number of infected leaves [10] | Number of infected leaves [11] | Number of infected leaves [12] | Number of infected leaves [13] | Number of infected leaves [14] | Number of infected leaves [15] | Eucalyptus camaldulensis resistance to Ophelimus maskelli infection | Ophelimus maskelli oviposition | number of infected leaves compared to control | number of galls per leaf compared to control
1 | CC(C)=CCCC(C)CC=O (stereo not shown) [citronellal, 3,7-dimethyloct-6-en-1-al] | 1 | 3 | 0 | 4 | 1 | 4 | 0 | 5 | 1 | 2 | 0 | 3 | 1 | 3 | 0 | 4 | significantly increased | significantly decreased | reduced number of infected leaves | reduced number of galls per leaf
2 | CC12CCC(CC1)C(C)(C)O2 [eucalyptol, 1,8-cineole, reference compound] | 5.333 | 10 | 6 | 21.33 | 4 | 14 | 6 | 24 | 5 | 6 | 6 | 17 | 7 | 10 | 6 | 23 | – | did not have a negative effect | slight increase | –
3 | CC(C)=CCC/C(C)=C/CO [geraniol, (trans)-3,7-Dimethyl-2,6-octadien-1-ol] | 4 | 2 | 1 | 7 | 4 | 3 | 1 | 8 | 4 | 2 | 1 | 7 | 4 | 1 | 1 | 6 | significantly increased | significantly decreased | reduced number of infected leaves | reduced number of galls per leaf

— US20180016596A1, “NUCLEIC ACID CONSTRUCTS, PLANTS COMPRISING SAME AND USES THEREOF IN ENHANCING PLANT PEST RESISTANCE AND ALTERING PLANT MONOTERPENE PROFILE” (Futuragene Israel Ltd., priority 2014, published 2018)
